Experimental data published in PubChem BioAssay (NCI).
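Growth conditions: 96-well plates. Treatment: test compound, 48 hours, 5 concentrations. Analysis: linear interpolation between bracketing concentrations; unreached endpoints set to highest concentration. GI50 = concentration required for 50% inhibition of growth. TGI marks complete inhibition of growth.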

Key:
Assay in all cases: NCI-60 cell line screen, 48 h
OVCAR-8 ovarian = tested on: OVCAR-8 ovarian
HOP-92 NSCLC = tested on: HOP-92 NSCLC
CCRF-CEM leukemia = tested on: CCRF-CEM leukemia
SK-MEL-2 melanoma = tested on: SK-MEL-2 melanoma
OVCAR-5 ovarian = tested on: OVCAR-5 ovarian
COLO 205 colon = tested on: COLO 205 colon
SK-OV-3 ovarian = tested on: SK-OV-3 ovarian
SK-MEL-5 melanoma = tested on: SK-MEL-5 melanoma
SR leukemia = tested on: SR leukemia
K-562 leukemia = tested on: K-562 leukemia
NCI-H226 lung = tested on: NCI-H226 lung
MDA-MB-468 breast = tested on: MDA-MB-468 breast
M14 melanoma = tested on: M14 melanoma
ACHN renal = tested on: ACHN renal
OVCAR-3 ovarian = tested on: OVCAR-3 ovarian
A549 NSCLC = tested on: A549 NSCLC
OVCAR-4 ovarian = tested on: OVCAR-4 ovarian
786-0 renal = tested on: 786-0 renal
HCT-116 colon = tested on: HCT-116 colon
MDA-MB-435 = tested on: MDA-MB-435
SW-620 colon = tested on: SW-620 colon
LOX IMVI melanoma = tested on: LOX IMVI melanoma
CAKI-1 renal = tested on: CAKI-1 renal
IGROV1 ovarian = tested on: IGROV1 ovarian
SF-268 CNS = tested on: SF-268 CNS
HCT-15 colon = tested on: HCT-15 colon
UACC-62 melanoma = tested on: UACC-62 melanoma
U251 CNS = tested on: U251 CNS
T-47D breast = tested on: T-47D breast
KM12 colon = tested on: KM12 colon
HL-60(TB) leukemia = tested on: HL-60(TB) leukemia
SN12C renal = tested on: SN12C renal
PC-3 prostate = tested on: PC-3 prostate
RXF 393 renal = tested on: RXF 393 renal
HT29 colon = tested on: HT29 colon
UO-31 renal = tested on: UO-31 renal
NCI-H460 lung = tested on: NCI-H460 lung
TK-10 renal = tested on: TK-10 renal
MALME-3M melanoma = tested on: MALME-3M melanoma
MCF7 breast = tested on: MCF7 breast
SNB-19 CNS = tested on: SNB-19 CNS
A498 renal = tested on: A498 renal
RPMI-8226 leukemia = tested on: RPMI-8226 leukemia
SF-295 CNS = tested on: SF-295 CNS
HS 578T breast = tested on: HS 578T breast
HOP-62 NSCLC = tested on: HOP-62 NSCLC
MOLT-4 leukemia = tested on: MOLT-4 leukemia
SK-MEL-28 melanoma = tested on: SK-MEL-28 melanoma
HCC-2998 colon = tested on: HCC-2998 colon
NCI-H23 lung = tested on: NCI-H23 lung
NCI-H522 lung = tested on: NCI-H522 lung
BT-549 breast = tested on: BT-549 breast
SF-539 CNS = tested on: SF-539 CNS
DU-145 prostate = tested on: DU-145 prostate
MDA-MB-231 breast = tested on: MDA-MB-231 breast
UACC-257 melanoma = tested on: UACC-257 melanoma
EKVX NSCLC = tested on: EKVX NSCLC

**Q.** Which GI50 (OVCAR-8 ovarian) does the source give for `CC(C)(C)c1cc(-c2cc(-c3ccccc3)[nH]c(=O)c2C#N)cc(C(C)(C)C)c1` here?
**A.** 3.5 µM

**Q.** What about the TGI (OVCAR-8 ovarian) of the same compound?
**A.** 13.9 µM

**Q.** And the GI50 (HOP-92 NSCLC)?
**A.** 2.83 µM

**Q.** What about the TGI (HOP-92 NSCLC) of the same compound?
**A.** 8.64 µM

**Q.** What about the GI50 (CCRF-CEM leukemia) of the same compound?
**A.** 36.8 µM

**Q.** And the TGI (CCRF-CEM leukemia)?
**A.** > 100 µM

**Q.** And the GI50 (SK-MEL-2 melanoma)?
**A.** 12 µM

**Q.** And the TGI (SK-MEL-2 melanoma)?
**A.** 26.5 µM

**Q.** What about the GI50 (OVCAR-5 ovarian) of the same compound?
**A.** 15.2 µM

**Q.** What about the TGI (OVCAR-5 ovarian) of the same compound?
**A.** 93.2 µM

**Q.** What about the GI50 (COLO 205 colon) of the same compound?
**A.** 37.6 µM

**Q.** And the TGI (COLO 205 colon)?
**A.** > 100 µM

**Q.** What about the GI50 (SK-OV-3 ovarian) of the same compound?
**A.** 5.8 µM

**Q.** What about the TGI (SK-OV-3 ovarian) of the same compound?
**A.** 22 µM

**Q.** What about the GI50 (SK-MEL-5 melanoma) of the same compound?
**A.** 14.3 µM

**Q.** And the TGI (SK-MEL-5 melanoma)?
**A.** 34.1 µM

**Q.** And the GI50 (SR leukemia)?
**A.** 19.4 µM

**Q.** And the TGI (SR leukemia)?
**A.** > 100 µM

**Q.** And the GI50 (K-562 leukemia)?
**A.** 17.8 µM

**Q.** What about the TGI (K-562 leukemia) of the same compound?
**A.** > 100 µM

**Q.** And the GI50 (NCI-H226 lung)?
**A.** 2.69 µM

**Q.** And the TGI (NCI-H226 lung)?
**A.** 10.3 µM

**Q.** What about the GI50 (MDA-MB-468 breast) of the same compound?
**A.** 10.3 µM

**Q.** And the TGI (MDA-MB-468 breast)?
**A.** 29.7 µM

**Q.** And the GI50 (M14 melanoma)?
**A.** 12 µM

**Q.** What about the TGI (M14 melanoma) of the same compound?
**A.** 38.3 µM

**Q.** And the GI50 (ACHN renal)?
**A.** 2.7 µM

**Q.** What about the TGI (ACHN renal) of the same compound?
**A.** 7.91 µM

**Q.** And the GI50 (OVCAR-3 ovarian)?
**A.** 12.4 µM

**Q.** And the TGI (OVCAR-3 ovarian)?
**A.** 41.5 µM

**Q.** And the GI50 (A549 NSCLC)?
**A.** 3.71 µM

**Q.** What about the TGI (A549 NSCLC) of the same compound?
**A.** 15.9 µM

**Q.** And the GI50 (OVCAR-4 ovarian)?
**A.** 2.85 µM

**Q.** What about the TGI (OVCAR-4 ovarian) of the same compound?
**A.** 10.1 µM

**Q.** What about the GI50 (786-0 renal) of the same compound?
**A.** 5.14 µM

**Q.** What about the TGI (786-0 renal) of the same compound?
**A.** 18.2 µM

**Q.** What about the GI50 (HCT-116 colon) of the same compound?
**A.** 21.4 µM

**Q.** And the TGI (HCT-116 colon)?
**A.** 61.4 µM

**Q.** What about the GI50 (MDA-MB-435) of the same compound?
**A.** 14.6 µM

**Q.** And the TGI (MDA-MB-435)?
**A.** 43.1 µM

**Q.** What about the GI50 (SW-620 colon) of the same compound?
**A.** 18.6 µM

**Q.** And the TGI (SW-620 colon)?
**A.** > 100 µM

**Q.** And the GI50 (LOX IMVI melanoma)?
**A.** 2.02 µM

**Q.** And the TGI (LOX IMVI melanoma)?
**A.** 4.53 µM

**Q.** And the GI50 (CAKI-1 renal)?
**A.** 2.81 µM

**Q.** And the TGI (CAKI-1 renal)?
**A.** 11 µM

**Q.** And the GI50 (IGROV1 ovarian)?
**A.** 3.9 µM

**Q.** And the TGI (IGROV1 ovarian)?
**A.** 17.6 µM

**Q.** And the GI50 (SF-268 CNS)?
**A.** 7.73 µM

**Q.** What about the TGI (SF-268 CNS) of the same compound?
**A.** 46.3 µM

**Q.** And the GI50 (HCT-15 colon)?
**A.** 17.8 µM

**Q.** And the TGI (HCT-15 colon)?
**A.** > 100 µM

**Q.** What about the GI50 (UACC-62 melanoma) of the same compound?
**A.** 7.98 µM

**Q.** What about the TGI (UACC-62 melanoma) of the same compound?
**A.** 22.7 µM

**Q.** And the GI50 (U251 CNS)?
**A.** 3.05 µM

**Q.** What about the TGI (U251 CNS) of the same compound?
**A.** 10.8 µM

**Q.** And the GI50 (T-47D breast)?
**A.** 6.71 µM

**Q.** What about the TGI (T-47D breast) of the same compound?
**A.** 45.8 µM

**Q.** What about the GI50 (KM12 colon) of the same compound?
**A.** > 100 µM

**Q.** What about the TGI (KM12 colon) of the same compound?
**A.** > 100 µM

**Q.** And the GI50 (HL-60(TB) leukemia)?
**A.** 49.2 µM

**Q.** And the TGI (HL-60(TB) leukemia)?
**A.** > 100 µM

**Q.** What about the GI50 (SN12C renal) of the same compound?
**A.** 4.09 µM

**Q.** And the TGI (SN12C renal)?
**A.** 25.7 µM

**Q.** What about the GI50 (PC-3 prostate) of the same compound?
**A.** 11.5 µM

**Q.** And the TGI (PC-3 prostate)?
**A.** 36.3 µM

**Q.** And the GI50 (RXF 393 renal)?
**A.** 2.4 µM

**Q.** And the TGI (RXF 393 renal)?
**A.** 7.03 µM

**Q.** What about the GI50 (HT29 colon) of the same compound?
**A.** 23.4 µM

**Q.** What about the TGI (HT29 colon) of the same compound?
**A.** 62 µM

**Q.** What about the GI50 (UO-31 renal) of the same compound?
**A.** 4.11 µM

**Q.** What about the TGI (UO-31 renal) of the same compound?
**A.** 19.1 µM

**Q.** And the GI50 (NCI-H460 lung)?
**A.** 3.56 µM

**Q.** And the TGI (NCI-H460 lung)?
**A.** 13.1 µM

**Q.** And the GI50 (TK-10 renal)?
**A.** 4.97 µM

**Q.** What about the TGI (TK-10 renal) of the same compound?
**A.** 19.9 µM

**Q.** What about the GI50 (MALME-3M melanoma) of the same compound?
**A.** 4.53 µM

**Q.** What about the TGI (MALME-3M melanoma) of the same compound?
**A.** 17 µM

**Q.** What about the GI50 (MCF7 breast) of the same compound?
**A.** 12.9 µM

**Q.** What about the TGI (MCF7 breast) of the same compound?
**A.** 39.1 µM

**Q.** And the GI50 (SNB-19 CNS)?
**A.** 3.03 µM

**Q.** What about the TGI (SNB-19 CNS) of the same compound?
**A.** 10.8 µM

**Q.** And the GI50 (A498 renal)?
**A.** 10.1 µM

**Q.** What about the TGI (A498 renal) of the same compound?
**A.** 26.1 µM

**Q.** What about the GI50 (RPMI-8226 leukemia) of the same compound?
**A.** 37.7 µM

**Q.** What about the TGI (RPMI-8226 leukemia) of the same compound?
**A.** > 100 µM

**Q.** And the GI50 (SF-295 CNS)?
**A.** 2.05 µM

**Q.** And the TGI (SF-295 CNS)?
**A.** 4.81 µM

**Q.** And the GI50 (HS 578T breast)?
**A.** 2.63 µM

**Q.** What about the TGI (HS 578T breast) of the same compound?
**A.** 8.85 µM

**Q.** And the GI50 (HOP-62 NSCLC)?
**A.** 3.25 µM

**Q.** What about the TGI (HOP-62 NSCLC) of the same compound?
**A.** 11.9 µM

**Q.** What about the GI50 (MOLT-4 leukemia) of the same compound?
**A.** 14.2 µM

**Q.** What about the TGI (MOLT-4 leukemia) of the same compound?
**A.** > 100 µM

**Q.** What about the GI50 (SK-MEL-28 melanoma) of the same compound?
**A.** 12.8 µM

**Q.** What about the TGI (SK-MEL-28 melanoma) of the same compound?
**A.** 30.5 µM

**Q.** What about the GI50 (HCC-2998 colon) of the same compound?
**A.** 38.8 µM

**Q.** What about the TGI (HCC-2998 colon) of the same compound?
**A.** > 100 µM

**Q.** What about the GI50 (NCI-H23 lung) of the same compound?
**A.** 6.22 µM

**Q.** And the TGI (NCI-H23 lung)?
**A.** 22.4 µM

**Q.** And the GI50 (NCI-H522 lung)?
**A.** 15.1 µM

**Q.** And the TGI (NCI-H522 lung)?
**A.** 73.3 µM

**Q.** And the GI50 (BT-549 breast)?
**A.** 4.12 µM

**Q.** And the TGI (BT-549 breast)?
**A.** 19 µM

**Q.** And the GI50 (SF-539 CNS)?
**A.** 5.11 µM

**Q.** What about the TGI (SF-539 CNS) of the same compound?
**A.** 17.7 µM

**Q.** What about the GI50 (DU-145 prostate) of the same compound?
**A.** 11.3 µM

**Q.** And the TGI (DU-145 prostate)?
**A.** 31.6 µM

**Q.** What about the GI50 (MDA-MB-231 breast) of the same compound?
**A.** 2.72 µM

**Q.** What about the TGI (MDA-MB-231 breast) of the same compound?
**A.** 8.82 µM

**Q.** What about the GI50 (UACC-257 melanoma) of the same compound?
**A.** 13.5 µM

**Q.** And the TGI (UACC-257 melanoma)?
**A.** 36.2 µM

**Q.** And the GI50 (EKVX NSCLC)?
**A.** 6.58 µM

**Q.** And the TGI (EKVX NSCLC)?
**A.** 22.6 µM
